Test results from patent publication US20240270692A1, “S(+) FORM OF 4-(2,4-DIFLUOROPHENYL)-2-(1H-INDOL-3-YL)-4-OXO-BUTANOIC ACID” (TOHOKU UNIVERSITY, priority 2021, published 2024).
“Also recorded” adds a separate entry of the source. Where two headings read alike, the source gives them in different places.

How the values were obtained:
[1] = In vivo administration test 1: intravenous administration, plasma concentration by LC-MS/MS; design: species or system cynomolgus monkeys; settings: for half-life / AUC / ke: male cynomolgus monkeys, intravenous, single dose 1 mg/kg, plasma
Procedure: (§1) Each enantiomer (S(+) form or R(−) form) of MA5 was dissolved in a mixed solution of physiological saline and 0.1 N sodium hydroxide (9:1), and filtered and sterilized by using a 0.22 μm filter to prepare a solution containing 2 mL/kg of each enantiomer of MA5. Next, the solution containing each enantiomer of MA5 was intravenously administered to each of three 4- to 5-year-old male cynomolgus monkeys at a single dose of 1 mg/kg. As a control, a solution containing no enantiomer of MA5 was also administered in the same manner. […] The analysis conditions for LC-MS/MS are as follows.
As an ionization unit, an apparatus in which NANOSPACESI-2 (manufactured by OSAKA SODA CO., LTD.) as a high-performance liquid chromatograph was connected to a triple quadrupole mass spectrometer (TSQ Quantum Ultra, manufactured by Thermo Fisher Scientific Inc.) equipped with an ESI probe was used. The S(+) form of MA5 (S-(+)-MA5) and the R(−) form of MA5 (R-(−)-MA5), which are substances to be analyzed, were subjected to quantitative analysis by the internal standard method using their respective stable isotopes S-(+)-MA5-d6 and R-(−)-MA5-d6. […] AD-3R (150×2.1 mm i.d., 3.0 μm particle size, manufactured by Daicel Corporation) was used as the analytical column, and CAPCELL C8UG120 (10×2.0 mm i.d., 5.0 μm particle size, manufactured by OSAKA SODA CO., LTD.) was used as the guard column. The column oven temperature was 35° C. Formic acid/water (0.1/100 [v/v]) (solution A)/acetonitrile (solution B) was used as the mobile phase, and the flow rate was 200 μL/min. The measurement was carried out under an isocratic condition in which a single composition of solution A/solution B (57/43 [v/v]) was used for elution. Solution A/solution B (57/43 [v/v]) was used until the analysis time reached 9.5 minutes, and solution A/solution B (10/90 [v/v]) was used after the analysis time reached 9.7 minutes. In addition, a system for washing the column with solution A/solution B (10/90 [v/v]) was incorporated while the analysis time elapsed was 9.7 minutes to 11.7 minutes, and the column was equilibrated with solution A/solution B (57/43 [v/v]) while the analysis time elapsed was 11.8 minutes to 15 minutes. The retention time was 6.95 minutes for S-(+)-MA5, 6.80 minutes for S-(+)-MA5-d6, 8.69 minutes for R-(−)-MA5, and 8.56 minutes for R-(−)-MA5-d6.
The MS conditions were detected in negative ion mode, a spray voltage set to 2.5 kV, a vaporizer temperature set to 250° C., and an ion transfer tube temperature set to 250° C. The precursor ion>product ion SRM channel was set to “m/z 328.0>116.2” for MA5 and “m/z 334.0>121.1” for MA5-d6. The collision energy for generating a product ion was set to 12 eV for MA5 and 17 eV for MA5-d6. Waveform analysis and quantitative calculation by the internal standard method were carried out by using Xcalibur (manufactured by Thermo Fisher Scientific Inc.).

[2] = In vivo administration test 2: oral administration, plasma concentrations; settings: male cynomolgus monkeys, single dose 100 mg/kg
Procedure: as §1
As an ionization unit, an apparatus in which NANOSPACESI-2 (manufactured by OSAKA SODA CO., LTD.) as a high-performance liquid chromatograph was connected to a triple quadrupole mass spectrometer (TSQ Quantum Ultra, manufactured by Thermo Fisher Scientific Inc.) equipped with an ESI probe was used. The S(+) form of MA5 (S-(+)-MA5) and the R(−) form of MA5 (R-(−)-MA5), which are substances to be analyzed, were subjected to quantitative analysis by the internal standard method using their respective stable isotopes S-(+)-MA5-d6 and R-(−)-MA5-d6. […]
The MS conditions were detected in negative ion mode, a spray voltage set to 2.5 kV, a vaporizer temperature set to 250° C., and an ion transfer tube temperature set to 250° C. […] Waveform analysis and quantitative calculation by the internal standard method were carried out by using Xcalibur (manufactured by Thermo Fisher Scientific Inc.).
In “3. […] Specifically, according to the method described in “3-1 Method” above, a solution containing each enantiomer (S(+) form or R(−) form) of MA5 was orally administered to male cynomolgus monkeys at a single dose of 100 mg/kg, the concentration of each enantiomer of MA5 and the concentration of a reduced metabolite of each enantiomer of MA5 (the compound represented by formula (B) [that is, Red-MA5]) in plasma were measured.

[3] = target: T1, nicotinamide phosphoribosyltransferase (Nampt) (Homo sapiens, UniProt P43490); test: Nampt binding test (Octet K2); settings: for binding to Nampt: Octet K2, biotin Nampt
T1 construct: biotin (biotinylated protein)
T1 sequence (P43490 whole entry, species assumed): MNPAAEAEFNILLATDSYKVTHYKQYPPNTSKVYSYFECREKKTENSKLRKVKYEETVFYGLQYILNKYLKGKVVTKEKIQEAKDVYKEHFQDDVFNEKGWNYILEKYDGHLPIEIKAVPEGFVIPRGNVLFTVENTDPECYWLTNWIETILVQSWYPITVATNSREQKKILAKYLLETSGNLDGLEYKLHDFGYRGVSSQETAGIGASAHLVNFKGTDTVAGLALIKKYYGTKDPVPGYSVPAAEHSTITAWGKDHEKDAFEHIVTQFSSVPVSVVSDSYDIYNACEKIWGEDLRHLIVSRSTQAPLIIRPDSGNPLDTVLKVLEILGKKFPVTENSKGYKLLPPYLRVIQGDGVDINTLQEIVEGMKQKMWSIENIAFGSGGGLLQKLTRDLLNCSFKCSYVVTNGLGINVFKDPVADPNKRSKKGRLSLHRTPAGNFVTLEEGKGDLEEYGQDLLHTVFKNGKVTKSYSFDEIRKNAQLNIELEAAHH
Procedure: The binding of the S(+) form of MA5 and the R(−) form of MA5 to nicotinamide phosphoribosyltransferase (Nampt), which is a key enzyme of the mammalian NAD^+ synthesis system, was measured by using Octet K2.
A 0.01% DDM PBS solution was prepared as a measurement buffer. 1 μL of biotin Nampt was added to 1000 μL of the measurement buffer. This was diluted 2-fold to obtain a 0.4 ng/μL ligand solution. A DMSO solution of a 100 mM MA5 S(+) form was diluted from 300 µM to 1000 μM, a DMSO solution of a 100 mM MA5 R(−) form was diluted from 500 μM to 1200 μM, and the diluted solutions were each used as an analyte solution. 200 μL each of the measurement buffer, a 1 μM biotin solution, a ligand solution, a 100 μM biocytin solution, and the analyte solution were added to a 96-well plate, and the plate was set in Octet K2 to carry out the measurement. Data were analyzed by using the accompanying software. Kd values were represented graphically with Prism 9 by using the concentrations of the analyte solution and the numerical values of Req (nm) calculated by the analysis.

[4] = tested on: Rat fetal cardiomyoblast cells H9c2; test: Effect of suppressing DNA damage caused by camptothecin (γH2AX immunostaining); type: cell-based; settings: camptothecin 10 μM plus compound 30 μM, cultured 24 hours
Procedure: Rat fetal cardiomyoblast cells H9c2 were maintained and cultured in a DMEM medium (10% FBS, penicillin at 100 units/mL, streptomycin at 100 μg/mL). Camptothecin (CPT) at a final concentration of 10 μM, CPT at a final concentration of 10 μM, and MA5 (racemic form, S(+) form, or R(−) form) at a final concentration of 30 μM, or DMSO (control) were added. The cells were cultured for 24 hours, then the medium was removed, and γH2AX (phosphorylated H2AX), which is an indicator for DNA damage, was detected by immunostaining. The immunostaining was carried out by using a mouse anti-γH2AX antibody (Thermo Fisher) as a primary antibody and a CF568-labeled goat anti-mouse IgG antibody (Biotium Inc.) as a secondary antibody.

[5] = cynomolgus monkey, read-out: AUC value

Compound | half-life ([1]; cynomolgus monkey) [h] | AUC [1, 5] [ng·h/mL] | AUC [1] [ng·h/mL] | ke [1] [h⁻¹] | reduced metabolite (Red-MA5) in plasma [2] | binding to Nampt [3] | binding to Nampt ([3]; listed as R(−) form) | fluorescence intensity of γH2AX (phosphorylated H2AX) [4] | R(−) form of MA5 in plasma after administration of the S(+) form (chiral conversion in vivo) ([1]; 5 minutes to 24 hours after intravenous administration, cynomolgus monkeys) | more likely to be retained in blood than the R(−) form of MA5 ([1]; from AUC values, intravenous 1 mg/kg, cynomolgus monkeys) [times] | concentration in plasma after oral administration [2] | Kd ([3]; NAMPT, Octet K2) [µM]
O=C(C[C@@H](C(=O)O)c1c[nH]c2ccccc12)c1ccc(F)cc1F [R(−) form of MA5, 4-(2,4-difluorophenyl)-2-(1H-indol-3-yl)-4-oxo-butanoic acid] | 1.1 | 12000 | 12000 | 0.63 | detected | did not bind to NAMPT | does not bind to Nampt | not observed | – | – | – | –
O=C(C[C@H](C(=O)O)c1c[nH]c2ccccc12)c1ccc(F)cc1F [S(+) form of MA5, 4-(2,4-difluorophenyl)-2-(1H-indol-3-yl)-4-oxo-butanoic acid] | 2.4 | 30000 | 30000 | 0.29 | almost no reduced metabolite was detected | binds to Nampt | – | a decrease in the fluorescence intensity of phosphorylated H2AX was observed; also recorded: the level of γH2AX was low | not detected | 2.5 | higher than that of the R(−) form of MA5 in plasma | 58.9
